From patent US9701667B2, “Coumarin-based fluorogenic agents and uses thereof for specific protein labelling” (UNIVERSITY OF OTTAWA, priority 2014, dated 2017)
Entries after “also recorded” stand apart in the source; their conditions may differ.

Experiments:
MBP-dC10α [1] = assay: Fluorescence properties and fluorescence enhancement (FE) before/after labelling of model target protein; assay type: biochemical; conditions: for background (intrinsic) fluorescence before labelling / quenching: fluorogen without target protein; for Fluorescence enhancement (FE): after labelling with MBP-dC10, λex = 440 nm, λem = 485 nm, 50 mM HEPES pH 7.4; for fluorescence after the labelling reaction: after reaction with MBP-dC10α
Procedure: For experiments described herein, maltose-binding protein (MBP) was chosen as a highly-soluble test protein and the dC10α tag was fused to its C-terminus (MBP-dC10α) as described previously (Guy, J. et al., Mol. Biosyst. 2010, 6, 976-987).
Emission spectra and fluorescence intensity measurements were recorded at 37° C. with a Synergy H4 Hybrid Multi-Mode Microplate Reader with excitation and emission monochromators set at 9 nm bandpass. The mixture of 100 μM solution of fluorogen (YCx) and 100 μM MBP-dC10 in 50 mM HEPES buffer (pH 7.4) with 5% DMSO was incubated at 37° C. in the dark for 12 hours, after which the fluorescence emission spectrum of a dilution (25 μM final) in 50 mM HEPES buffer with 5% DMSO was recorded. The emission spectra of the corresponding labelling reagent in same solution without MBP-dC10α were also recorded. The ratio of fluorescence intensity at maximum emission gave the fluorescence enhancement (FE) ratio.

[2] = Time-dependent fluorescence increase on reaction with GSH; conditions: for reaction with low concentration of GSH / reaction with high concentration (large excess) of GSH: 25 μM fluorogen; for reaction with low concentration of GSH: 50 μM GSH; for reaction with high concentration (large excess) of GSH: 1 mM GSH; for reaction with GSH: 50 mM HEPES pH 7.4
Procedure: (§1) Reactivity was tested through the time-dependent fluorescence increase at 37° C. using Synergy H4 Hybrid Multi-Mode Microplate Reader with excitation and emission monochromators set to 9 nm bandpass. All reactions were prepared in 50 mM HEPES buffer (pH 7.4) with 5% DMSO. Solutions of MBP-dC10α or GSH were prepared in 96-well plates and labelling reagent (YCx) in DMSO was added immediately before recording. The final concentration of labelling reagent was 25 μM, the final concentration of MBP-dC10α was 25 μM and the final concentration of GSH was 50 μM or 1 mM in 50 mM HEPES buffer (pH 7.4) with 5% DMSO. Samples were excited at 440 nm and fluorescence intensity was followed at 485 nm as a function of time.

Aqueous solubility = assay type: physicochemical
[3] = Kinetic studies of consecutive thiol addition reactions with model thiol MPA; conditions: for first thiol addition faster than second addition: ratio of first to second MPA addition rate; for k1 / k2: second order rate constant, 50 mM HEPES pH 7.4, 5% DMSO, 37° C.; for k1: first thiol addition of MPA; for k2: second thiol addition of MPA
Procedure: Kinetic studies were then performed for the thiol addition reactions of YC5 and YC9 with 3-mercaptopropionic acid (MPA) as a water-soluble, nucleophilic model thiol (Scheme 13). Reactions were run in the presence of a large excess of MPA, making them pseudo-first order in fluorogen. The resulting time-dependent increase in fluorescence was fit to a model for consecutive first order reactions, providing pseudo-first order rate constants for both addition steps. The concentration of MPA was then varied, allowing second order rate constants to be calculated for both steps.
where I is fluorescence intensity, and the fluorescence intensity is linearly proportional to the concentration, since the concentration of fluorogen used here is within the linear range. So IA=a*[A]; IB=b*[B]; IP=p*[P]; [A]0=2.5*10^−5. With this formula, there will be 5 parameters, but based on the nature of the reaction and the fluorescent properties of the compounds, the 5 parameters can be restrained as: p>b>a>0; k1>k2>0. Finally, the formula and the conditions were applied in Origin 6.0 to fit the curves by non-linear regression, yielding values for the kobs for each step.
Kinetic experiments were carried out at 37° C. using Synergy H4 Hybrid Multi-Mode Microplate Reader with excitation and emission monochromators 9 nm bandpass. Solutions with different MPA concentrations were prepared in 96-well plate and labelling reagent (YC5 or YC9) in DMSO was added immediately before recording. The final concentration of labelling reagent was 25 μM and the final concentrations of MPA were 0.875 mM, 1 mM, 1.125 mM or 1.25 mM in 50 mM HEPES buffer (pH 7.4) with 5% DMSO (FIG. 12). Samples were excited at 440 nm and fluorescence intensity was followed at 485 nm as a function of time. All the time-dependent fluorescence increase curves were fitted by non-linear regression according to the formula from the last section using Origin to get kobs. kobs was plotted against MPA concentrations to obtain a second order rate constant.

cmyc-mNeptune-dC10α = assay: Intracellular labelling of test protein in transfected cells (YC9); assay type: cell-based, human
Description: The red fluorescent protein mNeptune was chosen as a target protein so that its intrinsic fluorescence would serve as a control for the transfection and expression of the target protein. The target sequence dC10α was cloned to its C-terminus and the cmyc epitope (which would ensure the protein was also at least partially directed to the nucleus) was cloned to its N-terminus. […] Furthermore, fluorescent labelling was most intense and nearly limited to cells (FIG. 11D) that expressed the target red fluorescent test protein (FIG. 11E).
HEK 293T cells were plated into 6-well plates equipped with 25 mm×25 mm coverslips and grown in DMEM supplemented with 10% FBS 16 h before transfection. Cells were transiently transfected with mNeptune-dC10α or pcDNA3.1 using lipofectamine 2000. Either 24 or 48 h after transfection, the cells were washed with complete DMEM and incubated with 25 μM YC9 in DMEM for 30 min at 37° C. The media with labelling reagent was removed and followed by 3 times washing over 3 h at 37° C. Cells were fixed after labelling for imaging on a Carl Zeiss Axiophot inverted microscope.

MBP-dC10α [4] = assay: Time-dependent fluorescence increase on reaction with test protein; assay type: biochemical; conditions: for reactivity with test protein MBP-dC10: 25 μM fluorogen, 25 μM MBP-dC10, 50 mM HEPES pH 7.4; for selectivity of labelling target protein over GSH: MBP-dC10 versus GSH
Procedure: as §1

HEK293T cells = assay: MTT cytotoxicity assay; assay type: cell-based, human; conditions: 20 h incubation
Procedure: 3-(4,5-Dimethylthiazol-2-yl)-2,5-diphenyl tetrazolium bromide (MTT) is a yellow tetrazolium salt and can be reduced to formazan crystals, which are insoluble in aqueous solutions, by active mitochondria in living cells. The resulting intracellular purple formazan can be dissolved in Triton X100, and therefore quantified by measuring absorption of the solution.
Cells were seeded in a 96-well plate and incubated with 100 μL of culture medium with different amounts of the fluorogen YCx for 16 h. No fluorogen was added to the positive control and no cells were plated in the negative control. Portions of 25 μL of MTT solution (5 mg in 1 mL of Hanks' balanced salt solution) were added to the wells and the cells were further incubated at 37° C. for 4 h. Solubilization solutions (100 μL) were then added and incubated in 96-well plates at room temperature in the dark overnight. The absorption of each well was measured using a plate reader at a wavelength of 570 nm with 690 nm as a reference. Cell viability was calculated according to the following equation: Cell viability=(Awith fluorogen−Anegative control)/(Apositive control−Anegative control).

Row | SMILES | background (intrinsic) fluorescence before labelling / quenching (MBP-dC10α [1]) | Fluorescence enhancement (FE) (MBP-dC10α [1]) | reaction with low concentration of GSH [2] | reaction with high concentration (large excess) of GSH [2] | other results
1 | CCN(CC)c1ccc2cc(C(=O)N3CCN(C(=O)c4cc(N5C(=O)C=C(C)C5=O)cc(N5C(=O)C=C(C)C5=O)c4)CC3)c(=O)oc2c1 [YC25, 1,1′-(5-(4-(7-(diethylamino)-2-oxo-2H-chromene-3-carbonyl)piperazine-1-carbonyl)-1,3-phenylene)bis(3-methyl-1H-pyrrole-2,5-dione)] | strong background fluorescence | – | – | – | –
2 | CCN(CC)c1ccc2cc(C(=O)Nc3cc(N4C(=O)C=C(C)C4=O)cc(N4C(=O)C=C(C(C)C)C4=O)c3)c(=O)oc2c1 [YC16] | – | 228 | did not react | showed some signal | –
3 | CCC1=CC(=O)N(c2cc(NC(=O)c3cc4ccc(N(CC)CC)cc4oc3=O)cc(N3C(=O)C=C(C)C3=O)c2)C1=O [YC15] | – | 226 | did not react | showed some signal | –
4 | COc1ccc2cc(C(=O)Nc3cc(N4C(=O)C=C(C)C4=O)cc(N4C(=O)C=C(C)C4=O)c3)c(=O)oc2c1 [YC26, N-(3,5-bis(3-methyl-2,5-dioxo-2,5-dihydro-1H-pyrrol-1-yl)phenyl)-7-methoxy-2-oxo-2H-chromene-3-carboxamide] | – | – | – | – | aqueous solubility (Aqueous solubility): poor aqueous solubility
5 | CCN(CC)c1ccc2cc(C(=O)Nc3cc(N4C(=O)C=C(C)C4=O)cc(N4C(=O)C=C(OC)C4=O)c3)c(=O)oc2c1 [YC9, 7-(Diethylamino)-N-(3-(3-methoxy-2,5-dioxo-2,5-dihydro-1H-pyrrol-1-yl)-5-(3-methyl-2,5-dioxo-2,5-dihydro-1H-pyrrol-1-yl)phenyl)-2-oxo-2H-chromene-3-carboxamide] | negligible background fluorescence | 62 | did not react | showed some signal | fluorescence after the labelling reaction (MBP-dC10α [1]): strongly fluorescent; first thiol addition faster than second addition [3]: 63 times; k1 [3]: 2.480 ± 0.216 M⁻¹ s⁻¹; k2 [3]: 0.0388 ± 0.0133 M⁻¹ s⁻¹; selectivity of labelling dC10α-tagged target protein in living cells (cmyc-mNeptune-dC10α; HEK293 cells transfected with cmyc-mNeptune-dC10α, 25 μM YC9, 30 min): high selectivity; background fluorescence in mock-transfected cells (cmyc-mNeptune-dC10α; cells transfected with empty (mock) vector, 25 μM YC9): minimal background fluorescence; reaction with GSH [2]: completely suppressed; melting point: 88.3 to 93.7 °C; reactivity with test protein MBP-dC10 (MBP-dC10α [4]): still rapid
6 | COC(=O)CCN(CCC(=O)OC)c1ccc2cc(C(=O)Nc3cc(N4C(=O)C=C(OC)C4=O)cc(N4C(=O)C=C(OC)C4=O)c3)c(=O)oc2c1 [YC21M, Dimethyl 3,3′-((3-((3,5-bis(3-methoxy-2,5-dioxo-2,5-dihydro-1H-pyrrol-1-yl)phenyl)carbamoyl)-2-oxo-2H-chromen-7-yl)azanediyl)dipropanoate] | – | – | – | – | cytotoxicity (cell viability, MTT) (HEK293T cells): neither showed any cytotoxicity up to 100 μM
7 | CCOC1=CC(=O)N(c2cc(NC(=O)c3cc4ccc(N(CC)CC)cc4oc3=O)cc(N3C(=O)C=C(C)C3=O)c2)C1=O [YC17] | – | 194 | did not react | showed some signal | –
8 | CCN(CC)c1ccc2cc(C(=O)Nc3cc(N4C(=O)C=C(C)C4=O)cc(N4C(=O)C=C(C)C4=O)c3)c(=O)oc2c1 [YC5, N-(3,5-bis(3-methyl-2,5-dioxo-2,5-dihydro-1H-pyrrol-1-yl)phenyl)-7-(diethylamino)-2-oxo-2H-chromene-3-carboxamide] | negligible background fluorescence | 69 | – | – | fluorescence after the labelling reaction (MBP-dC10α [1]): strong fluorescence; also recorded: strongly fluorescent; first thiol addition faster than second addition [3]: 7 times; k1 [3]: 1.208 ± 0.249 M⁻¹ s⁻¹; k2 [3]: 0.1571 ± 0.0510 M⁻¹ s⁻¹; reaction with GSH [2]: still appreciable; selectivity of labelling target protein over GSH (MBP-dC10α [4]): reacted faster with MBP-dC10α than with GSH
9 | CCN(CC)c1ccc2cc(C(=O)Nc3cc(N4C(=O)C=C(C)C4=O)cc(N4C(=O)C=C(Br)C4=O)c3)c(=O)oc2c1 [YC18] | – | 468 | – | – | reactivity with test protein MBP-dC10 (MBP-dC10α [4]): much more reactive than other fluorogens; also recorded: labelled the protein most efficiently; selectivity of labelling target protein over GSH (MBP-dC10α [4]): did not show much difference; also recorded: not as selectively as other fluorogens
10 | COc1ccc2cc(C(=O)N3CCN(C(=O)c4cc(N5C(=O)C=C(C)C5=O)cc(N5C(=O)C=C(C)C5=O)c4)CC3)c(=O)oc2c1 [YC24, 1,1′-(5-(4-(7-methoxy-2-oxo-2H-chromene-3-carbonyl)piperazine-1-carbonyl)-1,3-phenylene)bis(3-methyl-1H-pyrrole-2,5-dione)] | quenched very efficiently | – | – | – | fluorescence after the labelling reaction (MBP-dC10α [1]): weak
11 | CCN(CC)c1ccc2cc(C(=O)Nc3cc(N4C(=O)C=C(C)C4=O)cc(N4C(=O)C=C(OC(C)C)C4=O)c3)c(=O)oc2c1 [YC19] | – | 189 | did not react | showed some signal | –
